From patent US7425556B2 (priority 2005, dated 2008)

What was measured:
[1] = target: T1, GABAA1 (human α1β2γ2 GABAA receptor) (Homo sapiens, UniProt P14867+P18507); assay: Two-electrode voltage-clamp in Xenopus oocytes, potentiation of GABA EC10 current, GABAA1; format: cell-based; details: percentage potentiation of GABA EC10 current divided by that of diazepam
T1 construct: expressed in transfected cells; host or cells: Xenopus laevis oocytes injected with capped cRNA

[2] = target: T2, GABAA2 (human α2β3γ2 GABAA receptor) (Homo sapiens, UniProt P18507+P47869); assay: Two-electrode voltage-clamp in Xenopus oocytes, potentiation of GABA EC10 current, GABAA2; format: cell-based; details: percentage potentiation of GABA EC10 current divided by that of diazepam
T2 construct: expressed in transfected cells; host or cells: Xenopus laevis oocytes injected with capped cRNA
T2 sequence (P47869 29-451): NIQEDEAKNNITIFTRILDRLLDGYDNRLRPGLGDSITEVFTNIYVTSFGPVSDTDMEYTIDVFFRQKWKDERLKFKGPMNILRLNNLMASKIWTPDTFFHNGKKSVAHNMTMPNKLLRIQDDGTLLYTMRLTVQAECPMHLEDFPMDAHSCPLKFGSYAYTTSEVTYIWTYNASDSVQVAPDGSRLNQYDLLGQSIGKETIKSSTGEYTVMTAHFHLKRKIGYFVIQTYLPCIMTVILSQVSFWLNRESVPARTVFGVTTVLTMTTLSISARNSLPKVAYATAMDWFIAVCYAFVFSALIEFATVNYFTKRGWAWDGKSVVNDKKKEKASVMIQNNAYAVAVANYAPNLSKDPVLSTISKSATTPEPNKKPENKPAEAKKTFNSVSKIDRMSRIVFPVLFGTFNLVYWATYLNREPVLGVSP
T2 sequence (P28472 26-473 partner): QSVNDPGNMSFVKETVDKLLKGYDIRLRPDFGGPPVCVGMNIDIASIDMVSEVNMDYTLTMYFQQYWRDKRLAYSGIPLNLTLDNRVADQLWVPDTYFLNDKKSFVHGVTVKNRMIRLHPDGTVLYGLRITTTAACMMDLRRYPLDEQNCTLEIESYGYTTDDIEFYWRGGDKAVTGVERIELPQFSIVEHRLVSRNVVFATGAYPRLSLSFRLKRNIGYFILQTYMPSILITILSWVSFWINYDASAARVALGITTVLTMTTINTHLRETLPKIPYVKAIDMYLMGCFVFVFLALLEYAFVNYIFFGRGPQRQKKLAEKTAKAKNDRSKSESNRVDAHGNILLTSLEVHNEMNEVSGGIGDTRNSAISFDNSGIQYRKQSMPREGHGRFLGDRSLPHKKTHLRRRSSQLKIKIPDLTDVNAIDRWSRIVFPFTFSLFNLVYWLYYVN
T2 sequence (P18507 40-475): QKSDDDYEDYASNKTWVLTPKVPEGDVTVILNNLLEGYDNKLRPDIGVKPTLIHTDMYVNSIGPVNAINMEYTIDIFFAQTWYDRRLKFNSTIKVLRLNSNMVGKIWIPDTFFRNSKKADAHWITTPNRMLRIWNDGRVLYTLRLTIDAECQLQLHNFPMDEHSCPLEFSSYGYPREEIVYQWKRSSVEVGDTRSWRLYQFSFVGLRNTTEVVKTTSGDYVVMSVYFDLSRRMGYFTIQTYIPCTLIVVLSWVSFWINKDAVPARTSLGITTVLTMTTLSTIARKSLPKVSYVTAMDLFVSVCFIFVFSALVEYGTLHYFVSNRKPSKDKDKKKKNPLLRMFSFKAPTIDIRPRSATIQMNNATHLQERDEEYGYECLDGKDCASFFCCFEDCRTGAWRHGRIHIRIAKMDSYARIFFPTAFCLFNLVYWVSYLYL

[3] = target: T3, GABAA2 receptors (α2, β3, γ2 receptor subunits) (Homo sapiens, UniProt P18507+P47869); assay: biochemical; details: [3H]-Flunitrazepam ~2 nM, α2β3γ2 Sf9 membranes, 1 hr at 4° C.; read-out: GABAA2 Binding Ki
T3 construct: host or cells: Sf9 cells (membranes)
T3 sequence (P47869 29-451): as the sequence (P47869 29-451) above
T3 sequence (P28472 26-473 partner): as the sequence (P28472 26-473 partner) above
T3 sequence (P18507 40-475): as the sequence (P18507 40-475) above

[4] = target: human Melatonin receptor 1 (MT1) (Homo sapiens, UniProt P48039); assay: biochemical; details: for Emax: read-out: MT1 Receptor GTPgS Emax; for EC50: hMT1/HEK293F membranes, agonist potency, read-out: MT1 Receptor GTPgS EC50; for MT1 Receptor GTPgS Emax: efficacy, 100% effect = 3 nM 2-Iodomelatonin, 0% = vehicle
Chain of human Melatonin receptor 1 (MT1) (P48039 whole entry): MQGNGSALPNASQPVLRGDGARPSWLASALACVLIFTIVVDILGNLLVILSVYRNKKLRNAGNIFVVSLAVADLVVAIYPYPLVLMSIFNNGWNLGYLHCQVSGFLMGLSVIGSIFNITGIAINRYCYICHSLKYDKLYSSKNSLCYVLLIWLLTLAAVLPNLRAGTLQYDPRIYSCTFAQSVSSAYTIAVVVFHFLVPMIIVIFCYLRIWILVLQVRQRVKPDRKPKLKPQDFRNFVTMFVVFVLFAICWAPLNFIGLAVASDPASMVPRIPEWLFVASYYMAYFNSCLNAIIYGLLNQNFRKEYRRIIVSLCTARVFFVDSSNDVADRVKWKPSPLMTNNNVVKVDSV
Method: Method II MT1 GTPγ^35S-SPA Assay Test Validation Standards
Test compounds were synthesized in house. […] 2 μl of diluted compounds were transferred to Optic-assay-plates.
(Freshly add protease inhibitor cocktail tables from Roche). […] The protein concentration of the membrane was determined. The membranes were aliquoted and stored at −80° C.
• MAX response (100% effect) was determined as the effect of 3 nM of 2-lodomelatonin. • MIN response (0% effect) was determined as the effect of vehicle control. Description of Experimental Procedure
The final concentration of GTPγ^35S was 200 pM.

MT1 Receptor = MT1 Receptor (Homo sapiens, UniProt P48039); assay: biochemical; format: binding; details: for Ki: read-out: MT1 Receptor Binding Ki
Chain of MT1 Receptor (P48039 whole entry): as above

T1 sequence (P14867 28-456): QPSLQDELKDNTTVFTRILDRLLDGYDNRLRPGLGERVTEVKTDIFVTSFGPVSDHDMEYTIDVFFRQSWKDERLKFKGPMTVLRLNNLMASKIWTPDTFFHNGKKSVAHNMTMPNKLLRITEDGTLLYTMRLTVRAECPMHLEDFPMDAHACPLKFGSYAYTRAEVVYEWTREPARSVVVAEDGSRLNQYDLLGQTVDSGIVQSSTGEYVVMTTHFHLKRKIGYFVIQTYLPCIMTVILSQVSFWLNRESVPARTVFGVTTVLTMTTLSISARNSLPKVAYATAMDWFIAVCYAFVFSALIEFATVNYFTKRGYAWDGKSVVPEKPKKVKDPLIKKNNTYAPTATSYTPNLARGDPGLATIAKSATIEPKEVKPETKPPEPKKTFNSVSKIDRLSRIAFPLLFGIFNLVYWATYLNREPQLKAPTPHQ
T1 sequence (P47870 25-512 partner limits assumed): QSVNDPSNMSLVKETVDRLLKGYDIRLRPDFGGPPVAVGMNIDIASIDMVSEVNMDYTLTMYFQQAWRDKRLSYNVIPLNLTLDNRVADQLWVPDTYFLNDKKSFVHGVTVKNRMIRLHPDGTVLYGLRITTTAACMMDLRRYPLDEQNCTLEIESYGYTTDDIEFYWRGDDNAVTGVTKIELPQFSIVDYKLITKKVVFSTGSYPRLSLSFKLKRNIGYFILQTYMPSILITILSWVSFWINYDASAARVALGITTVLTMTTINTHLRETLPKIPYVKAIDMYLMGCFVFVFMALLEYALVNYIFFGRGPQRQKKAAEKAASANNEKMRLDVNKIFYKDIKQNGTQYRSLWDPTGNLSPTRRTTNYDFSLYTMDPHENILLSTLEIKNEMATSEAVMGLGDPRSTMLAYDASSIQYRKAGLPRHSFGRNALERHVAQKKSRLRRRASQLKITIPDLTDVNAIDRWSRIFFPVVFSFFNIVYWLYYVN
T1 sequence (P18507 40-475): as the sequence (P18507 40-475) above

| Compound | Relative Potentiation for GABAA1 [1] | Relative Potentiation for GABAA2 [2] | Ki [3] | Emax [4] | also measured |
| --- | --- | --- | --- | --- | --- |
| CCCNC(=O)c1nnc2c(-c3ccc(C)nc3F)cccc2c1N | 0.053 | 0.27 | 1.67 nM | – | – |
| CCCNC(=O)c1nnc2c(-c3cnccc3C)cccc2c1N | 0.083 | 0.11 | 1.68 nM | – | – |
| CCCNC(=O)c1nnc2c(-c3ccc(F)cc3F)cccc2c1N | −0.088 | 0.12 | 1.72 nM | – | – |
| CCCNC(=O)c1nnc2c(-c3cc(OC)ccc3F)cccc2c1N | 0.26 | 0.32 | 1.73 nM | – | – |
| CCCNC(=O)c1nnc2c(-c3cccc(Cl)c3Cl)cccc2c1N | 0.067 | 0.053 | 1.82 nM | – | – |
| CCCCNC(=O)c1nnc2c(-c3cnccc3OC)cccc2c1N | 0.2 | 0.52 | 1.84 nM | – | – |
| CCCNC(=O)c1nnc2c(-c3cc(C)ccc3OC)cccc2c1N | – | – | – | 61% | – |
| CCCNC(=O)c1nnc2c(-c3cnccc3OC)cccc2c1N | – | – | – | 64% | – |
| CCCNC(=O)c1nnc2c(-c3cnc(OC)nc3OC)cccc2c1N | – | – | – | 70% | – |
| CCCNC(=O)c1nnc2c(-c3cc(OC)ccc3OC)c(F)ccc2c1N | – | – | – | 64% | EC50 [4]: 23.6 nM; Ki (MT1 Receptor): 31 nM |
| CCCNC(=O)c1nnc2c(-c3cc(OC)ccc3OC)cccc2c1N [drawing 417] | – | – | – | – | MT1 Receptor GTPgS Emax [4]: 100; EC50 [4]: 37.5 nM; MT1 Receptor Binding % Inhibition at 1 μM (MT1 Receptor; at 1 μM): 86%; Ki (MT1 Receptor): 60 nM |
| CCCNC(=O)c1nnc2c(-c3cc(OC)ccc3OC)cccc2c1N [drawing 421] | – | – | – | – | MT1 Receptor GTPgS Emax [4]: 61; EC50 [4]: 26.7 nM; inhibition at 1 µM (MT1 Receptor; at 1 μM, read-out: MT1 Receptor Binding % Inhibition at 1 μM): 91%; Ki (MT1 Receptor): 36 nM |
